Test results from ChEMBL document CHEMBL1201862, “PubChem BioAssay data set” (2004).
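The compound was tested at five concentrations on cells cultured in 96-well plates, with a 48-hour exposure period. At the GI50, growth is halved.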 The source made the active and inactive calls. No stated cut-off is given here; in the data, active = GI50 up to about 1.1 µM and inactive = higher.

Assays:
Assay in all cases: NCI tumour cell line growth inhibition, 48 h
HOP-62 = tested on: HOP-62
COLO 205 = tested on: COLO 205
MOLT-4 = tested on: MOLT-4
UO-31 = tested on: UO-31
M14 = tested on: M14
HOP-92 = tested on: HOP-92
IGROV-1 = tested on: IGROV-1
A549 = tested on: A549
SK-OV-3 = tested on: SK-OV-3
SN12C = tested on: SN12C
KM12 = tested on: KM12
U-251 = tested on: U-251
UACC-257 = tested on: UACC-257
SW-620 = tested on: SW-620
SR = tested on: SR
HCT-116 = tested on: HCT-116
ACHN = tested on: ACHN
T47D = tested on: T47D
MCF7 = tested on: MCF7

Measured: GI50

COc1ccc(-c2cc(C(=O)Nc3cccc(C(F)(F)F)c3)nc(S)n2)cc1
inactive: HOP-62 > 100 µM | COLO 205 > 100 µM | MOLT-4 > 100 µM | UO-31 > 100 µM | M14 > 100 µM | HOP-92 > 100 µM | IGROV-1 > 100 µM | A549 > 100 µM | SK-OV-3 > 100 µM | SN12C > 100 µM | KM12 > 100 µM | U-251 > 100 µM | UACC-257 > 100 µM | SW-620 > 100 µM | SR > 100 µM | HCT-116 > 100 µM | ACHN > 100 µM

NC(CO)c1ccc(OCc2ccccc2)cc1 (centres undefined)
inactive: HOP-62 > 100 µM | COLO 205 > 100 µM | MOLT-4 27.5 µM | UO-31 44.3 µM | M14 > 100 µM | HOP-92 27.7 µM | IGROV-1 > 100 µM | A549 > 100 µM | SK-OV-3 > 100 µM | SN12C > 91.8 µM | KM12 > 100 µM | U-251 > 100 µM | UACC-257 > 100 µM | SW-620 38.8 µM | SR 31.2 µM | HCT-116 > 78.7 µM | ACHN > 100 µM

Cc1ccc(-n2c(N)c(C#N)c3[nH]nc(N)c3c2=O)cc1
inactive: HOP-62 > 100 µM | COLO 205 > 100 µM | MOLT-4 > 100 µM | UO-31 > 100 µM | M14 > 100 µM | HOP-92 > 100 µM | IGROV-1 > 100 µM | SK-OV-3 > 100 µM | KM12 > 100 µM | U-251 > 100 µM | UACC-257 > 100 µM | SW-620 > 100 µM | T47D > 100 µM | SR > 10 µM | MCF7 > 100 µM | HCT-116 > 100 µM | ACHN > 100 µM

CCOC(=O)c1cnc(-n2[nH]c(C)c(CCO)c2=O)[nH]c1=O
inactive: HOP-62 > 100 µM | COLO 205 > 100 µM | MOLT-4 > 100 µM | UO-31 > 100 µM | M14 > 100 µM | HOP-92 > 100 µM | IGROV-1 > 100 µM | A549 > 100 µM | SK-OV-3 > 100 µM | SN12C > 100 µM | KM12 > 100 µM | U-251 > 100 µM | UACC-257 > 100 µM | SW-620 > 100 µM | T47D > 100 µM | MCF7 > 100 µM | HCT-116 > 100 µM | ACHN > 100 µM

CCOc1ccc2c(c1)[n+]([O-])c(-c1ccccc1Cl)c(N)[n+]2[O-]
inactive: HOP-62 > 100 µM | COLO 205 > 100 µM | MOLT-4 74 µM | UO-31 > 100 µM | M14 > 100 µM | HOP-92 > 100 µM | IGROV-1 > 100 µM | A549 > 100 µM | SK-OV-3 > 100 µM | SN12C > 100 µM | KM12 > 100 µM | U-251 > 100 µM | UACC-257 > 100 µM | SW-620 > 100 µM | SR 94 µM | HCT-116 > 100 µM | ACHN > 100 µM

CSc1cc(Cl)c(C)cc1S(=O)(=O)NC(=O)NNc1cnc2ccccc2n1
inactive: HOP-62 > 100 µM | COLO 205 > 100 µM | MOLT-4 17.5 µM | M14 > 100 µM | IGROV-1 > 100 µM | A549 > 100 µM | SK-OV-3 > 100 µM | SN12C > 100 µM | KM12 > 100 µM | U-251 > 100 µM | SW-620 > 100 µM | T47D > 100 µM | SR > 100 µM | MCF7 > 100 µM | HCT-116 > 100 µM | ACHN > 100 µM

COc1cc2c3c(c1OC)-c1ccccc1C(C(O)c1ccccc1)C3N(C)CC2 (centres undefined)
inactive: HOP-62 24.3 µM | COLO 205 15.8 µM | MOLT-4 24.3 µM | UO-31 19.1 µM | M14 18.1 µM | HOP-92 53.3 µM | IGROV-1 38.8 µM | A549 39.5 µM | SK-OV-3 37.3 µM | SN12C 32.6 µM | KM12 25.8 µM | U-251 30 µM | UACC-257 20.5 µM | SW-620 34.3 µM | SR 18 µM | HCT-116 19.6 µM | ACHN 39.1 µM

O=C1NC2C=CN(Cc3ccccc3)C=C2C(=O)N2CCCC12 (centres undefined)
inactive: HOP-62 > 100 µM | COLO 205 > 100 µM | MOLT-4 > 100 µM | UO-31 > 100 µM | M14 > 100 µM | HOP-92 > 100 µM | IGROV-1 > 100 µM | A549 > 100 µM | SK-OV-3 > 100 µM | SN12C > 100 µM | KM12 > 100 µM | U-251 > 100 µM | UACC-257 > 100 µM | SW-620 > 100 µM | SR > 100 µM | HCT-116 > 100 µM | ACHN > 100 µM

CN(C)CCc1ccc(Cl)cc1Cl
inactive: HOP-62 > 100 µM | COLO 205 > 100 µM | MOLT-4 > 100 µM | UO-31 > 100 µM | M14 > 100 µM | HOP-92 62.2 µM | IGROV-1 > 100 µM | A549 > 100 µM | SK-OV-3 > 100 µM | SN12C > 100 µM | KM12 > 100 µM | U-251 > 100 µM | UACC-257 > 100 µM | SW-620 > 100 µM | SR > 100 µM | HCT-116 > 100 µM | ACHN > 100 µM

COc1cc2cc3c4c(cc(OC)c(OC)c4c2cc1OC)CCN3C(=O)CCC(=O)O
inactive: HOP-62 > 100 µM | COLO 205 > 100 µM | MOLT-4 > 100 µM | UO-31 > 100 µM | M14 > 100 µM | HOP-92 > 100 µM | IGROV-1 > 100 µM | A549 > 100 µM | SK-OV-3 > 100 µM | SN12C > 100 µM | KM12 > 100 µM | U-251 > 100 µM | UACC-257 > 100 µM | SW-620 > 100 µM | SR > 100 µM | HCT-116 > 100 µM | ACHN > 100 µM

C=C1c2ccccc2N(S(=O)(=O)c2ccc(C)cc2)C12CCCCC2
inactive: HOP-62 > 100 µM | COLO 205 43.5 µM | MOLT-4 30.4 µM | UO-31 > 100 µM | M14 94.4 µM | HOP-92 4.27 µM | IGROV-1 > 100 µM | A549 63.4 µM | SK-OV-3 > 100 µM | SN12C > 100 µM | KM12 38.5 µM | U-251 94.6 µM | UACC-257 36 µM | SW-620 59.3 µM | SR 13.1 µM | HCT-116 33 µM | ACHN 57.4 µM

O=C(O)c1cc2ccc(Cl)cc2c(O)c1C1=CCCCC1
inactive: HOP-62 33.7 µM | COLO 205 67.8 µM | MOLT-4 36.4 µM | UO-31 34.8 µM | M14 43.7 µM | HOP-92 23.2 µM | IGROV-1 50 µM | A549 39.9 µM | SK-OV-3 42.7 µM | SN12C 46.8 µM | KM12 42.4 µM | U-251 36.9 µM | UACC-257 31.5 µM | SW-620 44.5 µM | SR 57.4 µM | HCT-116 37.1 µM | ACHN 65 µM
